Structures can show the parent of a compound that is named as a salt.
System: SOD1
Assay: Analysis of SOD1 in iPS cell-derived astrocytes (Western blotting)
Format: cell-based, human
Settings: astrocytes differentiated from ALS patient iPS cells (SOD1 L106V); 5 nM, 50 nM, 500 nM and 5 μM; 48 hours incubation; Western blotting vs vehicle 0.5% DMSO
Method: The iPS cell-derived astrocytes were seeded to a 6-well plate at a density of 250,000 cells/well. After a vehicle [0.5% dimethylsulfoxide (DMSO)], cycloheximide at a final concentration of 5 μg/ml, and Atorvastatin Calcium Salt (Toronto Research Chemicals Inc.) at various final concentrations (5 nM, 50 nM, 500 nM and 5 μM) were added, the plate was incubated for 48 hours. Subsequently, the cells were recovered, and lysed using a 20 mM Hepes, pH 7.4, containing 1% triton X-100, 10% glycerol, 5 mM EDTA, 120 mM NaCl and protease inhibitor cocktail (Complete; Roche), on ice for 30 minutes. The cell lysate was centrifuged at 15,000 rpm, 4° C. for 30 minutes, and the supernatant was recovered. Western blotting was performed using this cytolysis supernatant. Specifically, 20 μg aliquot of the protein was separated by SDS-PAGE (4-12% polyacrylamide gels), transferred to a PVDF membrane, and incubated with an anti-SOD1 antibody (1:2000 dilution) (Stressgen Company) or an anti-β-actin antibody (1:5000 dilution) (Sigma-Aldrich Company). After the incubation, the amount expressed was detected by ECL (Enhanced ChemiLuminescence) using an HRP-linked anti-rabbit IgG antibody (1:5000; GE healthcare) and an HRP-linked anti-mouse IgG antibody (1:5000; GE healthcare). […] Meanwhile, when the vehicle DMSO alone was added to the human iPS cell 253G4 described by Nakagawa M et al. in Nat. Biotechnol. […]

`CC(C)c1c(C(=O)Nc2ccccc2)c(-c2ccccc2)c(-c2ccc(F)cc2)n1CC[C@H](O)C[C@@H](O)CC(=O)O` [Atorvastatin Calcium Salt, (3R,5S)-7-[2-(4-fluorophenyl)-5-(1-methylethyl)-3-phenyl-4-phenylaminocarbonyl-1H-pyrrol-1-yl]-3,5-dihydroxyheptanoic acid] was tested. Which “expression of SOD1 (amount of SOD1 protein)” value did it give?
The value was “a reduction in the expression of SOD1 was observed”.

Source: patent US20130115622A1, “PHARMACEUTICAL COMPOSITION FOR PREVENTION AND TREATMENT OF AMYOTROPHIC LATERAL SCLEROSIS” (KYOTO UNIVERSITY, priority 2009, published 2013)
